Assay results from patent publication US12616685B2, “Concomitant administration of glucocorticoid receptor modulator relacorilant and CYP2C9 substrates” (Corcept Therapeutics Incorporated, priority 2020, dated 2026).

Legend:
CYP2C9 = CYP2C9 (Homo sapiens, UniProt P11712); experiment: biochemical
Procedure: Cytochrome P450 (CYP) isoforms CYP1A2, CYP2C9, CYP2C19, CYP2D6, and CYP3A4, heterologously expressed in E. coli, were obtained from Cypex and mixed to produce a 5-CYP mix. A selective and FDA accepted substrate for each isoform was present in the reaction at a concentration around its Km.
The 5-CYP mix and a CYP substrate cocktail were added and the tubes warmed for 3 minutes whilst mixing on a BioShake IQ (37° C., 1500 rpm). NADPH (final concentration 1 mM) was added and the mixture was incubated for 10 minutes. Methanol containing an internal standard (1 μM tolbutamide) was then added to all samples, and these were mixed and placed at −20° C. for ≥1 hour to quench the reaction and allow protein to precipitate.
All samples were centrifuged (2500×g, 20 minutes, 4° C.). The supernatants were transferred to a fresh 96 well plate, compatible with an autosampler. The plate was sealed with a pre-slit silicone mat and the metabolites were analyzed by LC-MS/MS. […]
The final concentration in the assay of the 5-CYP mix was 32.5 pmol/ml for each of the enzymes evaluated (i.e., CYP1A2, CYP2C9, CYP2C19, CYP2D6, and CYP3A4). […]
The metabolites measured were: CYP1A2, 1-hydroxytacrine; CYP2C9, 4′-hydroxy diclofenac; CYP2C19, 4′-hydroxymephenytoin; CYP2D6, hydroxybufuralol; CYP3A4, 1′hydroxymidazolam. […]

[1] = Clinical drug-drug interaction study in healthy volunteers (tolbutamide alone vs with relacorilant); conditions: for effect of relacorilant co-administration on AUC0-tz and AUCinf / reduction of Cmax on co-administration of relacorilant: 500 mg tolbutamide with 350 mg relacorilant vs tolbutamide alone; for AUC0-tz, Ratio of Geometric LSMs (%) / AUCinf, Ratio of Geometric LSMs (%) / Cmax, Ratio of Geometric LSMs (%): 100*(Test/Reference), Treatment E (with relacorilant) vs Treatment B (tolbutamide alone)
Procedure: An open-label, crossover study was conducted in healthy subjects to determine the effect of relacorilant on the plasma exposure of tolbutamide, a known substrate of CYP2C9. A single 500 mg dose of tolbutamide was administered alone and pharmacokinetic (PK) samples were collected before dosing (0 hour) and at 0.5, 1, 1.5, 2, 2.5, 3, 4, 6, 8, 12, 18, 24, 36, and 48 hours post-dose. Relacorilant (350 mg) was then administered once a day for 10 consecutive days. On the following day, a single 500 mg dose of tolbutamide was administered in combination with relacorilant 350 mg and pharmacokinetic (PK) samples were again collected at pre-dose through 48 hours post-dose at the same timepoints as described above. The plasma concentrations of tolbutamide and its metabolite, 4-hydroxy tolbutamide were evaluated by validated bioanalytical assays on each dosing occasion of tolbutamide.
• ANOVA, analysis of variance; AUCinf, AUC from time 0 extrapolated to infinity; AUC0-tz, AUC from time 0 until the time of the last measurable concentration; Cmax, maximum plasma concentration; CV %, coefficient of variation; LSM, least squares mean. • Treatment B: Single oral dose of 500 mg tolbutamide (Reference). • Treatment E: Single oral dose of 500 mg tolbutamide and 350 mg relacorilant administered on Day 15 followed by oral doses of 350 mg relacorilant administered QD on Days 16 and 17 (Test). • Parameters were ln-transformed prior to analysis. • Geometric Least Square means (LSMs) were calculated by exponentiating the LSMs from the ANOVA. • Ratio of Geometric LSMs=100*(Test/Reference); where Test is Treatment E and Reference is Treatment B.

[2] = co-administered with CYP2C9 inhibitor sulfaphenazole, human subjects; Perkins et al. 2018; cited from earlier work
[3] = plasma, single oral 500 mg tolbutamide alone, healthy subjects
[4] = plasma, single oral 500 mg tolbutamide with 350 mg relacorilant after once-daily relacorilant, healthy subjects

CYP2C9, sequence (P11712 whole entry): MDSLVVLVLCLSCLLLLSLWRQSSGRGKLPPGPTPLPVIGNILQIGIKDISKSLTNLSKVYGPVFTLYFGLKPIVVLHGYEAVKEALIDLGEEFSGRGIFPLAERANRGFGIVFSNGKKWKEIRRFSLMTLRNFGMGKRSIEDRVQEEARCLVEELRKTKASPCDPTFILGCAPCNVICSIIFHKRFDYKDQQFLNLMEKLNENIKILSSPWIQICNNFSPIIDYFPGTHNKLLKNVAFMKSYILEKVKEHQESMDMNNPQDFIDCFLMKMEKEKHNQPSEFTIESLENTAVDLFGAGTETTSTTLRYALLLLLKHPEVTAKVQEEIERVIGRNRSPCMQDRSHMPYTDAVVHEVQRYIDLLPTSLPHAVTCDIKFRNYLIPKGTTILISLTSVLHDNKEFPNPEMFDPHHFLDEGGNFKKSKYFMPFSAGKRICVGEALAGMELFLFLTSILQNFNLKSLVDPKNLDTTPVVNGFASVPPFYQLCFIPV

IC50 (CYP2C9) | effect of relacorilant co-administration on AUC0-tz and AUCinf [1] | reduction of Cmax on co-administration of relacorilant [1] | AUC0-tz, Ratio of Geometric LSMs (%) [1] | AUCinf, Ratio of Geometric LSMs (%) [1] | Cmax, Ratio of Geometric LSMs (%) [1] | AUC0-tz, Geometric LSM, Reference (Day 2) Treatment B [1, 3] | AUCinf, Geometric LSM, Reference (Day 2) Treatment B [1, 3] | Cmax, Geometric LSM, Reference (Day 2) Treatment B [1, 3] | AUC0-tz, Geometric LSM, Test (Day 15) Treatment E [1, 4] | AUCinf, Geometric LSM, Test (Day 15) Treatment E [1, 4] | Cmax, Geometric LSM, Test (Day 15) Treatment E [1, 4] | AUC(0-inf) ([1]; human, plasma, po, 500 mg) | AUC(0-t) ([1]; human, plasma, po, 500 mg) | Cmax ([1]; human, plasma, po, 500 mg) | SMILES | fold increase in plasma level of tolbutamide (AUC) with sulfaphenazole [2]
2100 nM | – | – | – | – | – | – | – | – | – | – | – | – | – | – | Cn1cc(S(=O)(=O)N2CCC3=Cc4c(cnn4-c4ccc(F)cc4)C[C@]3(C(=O)c3cc(C(F)(F)F)ccn3)C2)cn1 [Relacorilant, (R)-(1-(4-fluorophenyl)-6-((1-methyl-1H-pyrazol-4-yl)sulfonyl)-4,4a,5,6,7,8-hexahydro-1H-pyrazolo[3,4-g]isoquinolin-4a-yl)(4-(trifluoromethyl)pyridine-2-yl)methanone] | –
– | no effect | approximately 37% | 88.80% | 89.91% | 63.49% | 8.619 µg·h/mL | 8.954 µg·h/mL | 604.3 ng/mL | 7.653 µg·h/mL | 8.051 µg·h/mL | 383.6 ng/mL | – | – | – | CCCCNC(=O)NS(=O)(=O)c1ccc(CO)cc1 [4-OH Tolbutamide, 4-hydroxy tolbutamide] | –
– | no effect | approximately 31% | 89.11% | 89.54% | 69.22% | – | – | – | – | – | – | 602 µg·h/mL | 579 µg·h/mL | 42400 ng/mL | CCCCNC(=O)NS(=O)(=O)c1ccc(C)cc1 [Tolbutamide, tolbutamide, reference compound] | more than 5 fold
